# According to patent US20260022142A1, “MACROCYCLIC IMMUNOMODULATORS” (Bristol-Myers Squibb Company, priority 2022, published 2026):
# pIC50: −log10 of the molar value. Bridge positions count the residues as written; N and C are the ends. Square brackets hold non-standard residues; d marks the D form. Peptide text beside a SMILES is read from it. * marks the point of attachment. ξ: configuration not given here. Phe(4-COOH) = N[C@@H](Cc1ccc(C(=O)O)cc1)C(=O)O; Bip = N[C@@H](Cc1ccc(-c2ccccc2)cc1)C(=O)O; Phe(3-Me) = Cc1cccc(C[C@H](N)C(=O)O)c1; His(τ-Me) = Cn1cnc(C[C@H](N)C(=O)O)c1; ξBip = NC(Cc1ccc(-c2ccccc2)cc1)C(=O)O; Val(3-OH) = CC(C)(O)[C@H](N)C(=O)O; hArg = N=C(N)NCCCC[C@H](N)C(=O)O; 3Pal = N[C@@H](Cc1cccnc1)C(=O)O; 4Pal = N[C@@H](Cc1ccncc1)C(=O)O; Cha = N[C@@H](CC1CCCCC1)C(=O)O; Cit = NC(=O)NCCC[C@H](N)C(=O)O; dCha = N[C@H](CC1CCCCC1)C(=O)O; Thr(3ξ) = CC(O)[C@H](N)C(=O)O; Carboxymethyl = O=C(O)C*; Orn = NCCC[C@H](N)C(=O)O; Aun = NCCCCCCCCCCC(=O)O; Dab = NCC[C@H](N)C(=O)O; Dap = NC[C@H](N)C(=O)O; ξD = NC(CC(=O)O)C(=O)O; AEEA = NCCOCCOCC(=O)O
# Target: T1, PD-1/PD-L1 interaction (PE-labeled human PD-L1-Ig binding to Jurkat cell line over-expressing human PD-1) (Homo sapiens, UniProt Q15116)
# T1 construct: expressed in transfected cells; host or cells: Jurkat
# Experiment: Jurkat-PD-1 Cell Binding High-Content Screening Assay (CBA)
# Type: cell-based
# Conditions: Jurkat cell line over-expressing human PD-1; PE-labeled PD-L1-Ig 20 nM final; read-out: Jurkat hPD1-PDL1 IC50
# Procedure, shortened: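 Human PD-L1-Ig carrying a covalent PE label on its Ig tag serves as the probe, applied at 20 nM final to compound-treated (2 h, 37° C) Jurkat-hPD-1 cells in medium with 10% fetal calf serum. After one hour, fixation and nuclear staining precede high-content image analysis.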
# T1 sequence (Q15116 25-288): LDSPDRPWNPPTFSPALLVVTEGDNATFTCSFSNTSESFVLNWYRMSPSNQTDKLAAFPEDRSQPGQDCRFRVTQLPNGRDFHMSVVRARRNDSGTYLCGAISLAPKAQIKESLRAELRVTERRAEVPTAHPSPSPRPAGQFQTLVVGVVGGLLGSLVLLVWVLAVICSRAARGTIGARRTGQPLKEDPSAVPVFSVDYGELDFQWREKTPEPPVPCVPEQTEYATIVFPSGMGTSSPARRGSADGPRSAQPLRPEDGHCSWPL
row,pIC50,SMILES
1,7.63,CC(C)C[C@H]1NC(=O)[C@H](CCCN)NC(=O)[C@H](C(C)C)NC(=O)[C@H](Cc2ccc(-c3ccccc3)cc2)NC(=O)[C@H](C(C)C)NC(=O)[C@H](Cc2c[nH]c3ccccc23)NC(=O)[C@H](CC(=O)O)NC(=O)[C@H](Cc2ccc(OCC(=O)O)cc2)NC(=O)[C@H](C(C)O)NC(=O)CSC[C@@H](C(=O)N[C@@H](CCN)C(=O)NCCCCCCCCCCC(=O)O)NC(=O)[C@H](Cc2cnc[nH]2)NC(=O)[C@H](C(C)O)NC(=O)[C@H](CC2CCCCC2)NC(=O)[C@H](CCN)NC1=O (stereo partly drawn) [Compound 3665] ({CH2CO}-[Thr(3ξ)]Y(Carboxymethyl)DWV[Bip]V[Orn][dL][Dab][Cha][Thr(3ξ)]HC[Dab][Aun]-OH; thioether N-14)
2,7.29,CC[C@H](C)[C@@H]1NC(=O)[C@H](Cc2ccc(-c3ccccc3)cc2)NC(=O)[C@H](C(C)C)NC(=O)[C@H](Cc2cccc(C)c2)NC(=O)[C@H](CC(=O)O)NC(=O)[C@H](Cc2ccc(C(=O)O)cc2)NC(=O)[C@H](Cc2ccncc2)NC(=O)CSC[C@@H](C(=O)N[C@@H](CCCN)C(=O)NCCCCCCCCCCC(=O)O)NC(=O)[C@H]([C@@H](C)O)NC(=O)[C@H](C(C)C)NC(=O)[C@H](CC2CCCCC2)NC(=O)[C@H](CCN)NC(=O)[C@@H](CC(C)C)NC(=O)[C@H](CCCN)NC1=O [Compound 1184]
3,7.77,Cc1cccc(C[C@@H]2NC(=O)[C@H](CC(=O)O)NC(=O)[C@H](Cc3ccc(OCC(=O)O)cc3)NC(=O)[C@H](Cc3cn(C)cn3)NC(=O)CSC[C@@H](C(=O)N[C@@H](CCN)C(=O)NCCCCCCCCCCC(=O)O)NC(=O)[C@H](CCCCN)NC(=O)[C@H](C(C)C)NC(=O)[C@H](CC3CCCCC3)NC(=O)[C@H](CCN)NC(=O)[C@@H](CC(C)C)NC(=O)[C@H](CCCN)NC(=O)[C@H](C(C)C)NC(=O)[C@H](Cc3ccc(-c4ccccc4)cc3)NC(=O)[C@H](C(C)C)NC2=O)c1 [Compound 2037] ({CH2CO}-[His(τ-Me)]Y(Carboxymethyl)D[Phe(3-Me)]V[Bip]V[Orn][dL][Dab][Cha]VKC[Dab][Aun]-OH; thioether N-14)
4,8.08,Cc1cccc(C[C@@H]2NC(=O)C(CC(=O)O)NC(=O)[C@H](Cc3ccc(OCC(=O)O)cc3)NC(=O)[C@H](CN)NC(=O)CSC[C@@H](C(=O)NCCOCCOCC(=O)N[C@@H](CCN)C(=O)NCCCCCCCCCCC(=O)O)NC(=O)[C@H]([C@@H](C)O)NC(=O)[C@H](C(C)C)NC(=O)[C@H](CC3CCCCC3)NC(=O)[C@H](CCN)NC(=O)[C@@H](CC(C)C)NC(=O)[C@H](CCCN)NC(=O)[C@H](CCCNC(N)=O)NC(=O)C(Cc3ccc(-c4ccccc4)cc3)NC(=O)[C@H](C(C)C)NC2=O)c1 (stereo partly drawn) [Compound 1177] ({CH2CO}-[Dap]Y(Carboxymethyl)[ξD][Phe(3-Me)]V[ξBip][Cit][Orn][dL][Dab][Cha]VTC[AEEA][Dab][Aun]-OH; thioether N-14)
5,7.93,Cc1cccc(C[C@@H]2NC(=O)[C@H](CC(=O)O)NC(=O)[C@H](Cc3ccc(OCC(=O)O)cc3)NC(=O)[C@H](C(C)O)NC(=O)CSC[C@@H](C(=O)N[C@@H](CCN)C(=O)NCCCCCCCCCCC(=O)O)NC(=O)[C@H](CO)NC(=O)[C@H](C(C)(C)O)NC(=O)[C@H](CC3CCCCC3)NC(=O)[C@H](Cc3cnc[nH]3)NC(=O)[C@@H](CC(C)C)NC(=O)[C@H](CCCN)NC(=O)[C@H](Cc3ccc(OCC(=O)O)cc3)NC(=O)[C@H](Cc3ccc(-c4ccccc4)cc3)NC(=O)[C@H](Cc3ccc(OCC(=O)O)cc3)NC2=O)c1 (stereo partly drawn) [Compound 3720] ({CH2CO}-[Thr(3ξ)]Y(Carboxymethyl)D[Phe(3-Me)]Y(Carboxymethyl)[Bip]Y(Carboxymethyl)[Orn][dL]H[Cha][Val(3-OH)]SC[Dab][Aun]-OH; thioether N-14)
6,7.44,Cc1cccc(C[C@@H]2NC(=O)[C@H](CC(=O)O)NC(=O)[C@H](Cc3ccc(OCC(=O)O)cc3)NC(=O)[C@H](CN)NC(=O)CSC[C@@H](C(=O)N[C@@H](CCN)C(=O)NCCOCCOCC(=O)NCCCCCCCCCCC(=O)O)NC(=O)[C@H](CN)NC(=O)[C@H](C(C)C)NC(=O)[C@H](CC3CCCCC3)NC(=O)[C@H](CCN)NC(=O)[C@@H](CC3CCCCC3)NC(=O)[C@H](CCCN)NC(=O)[C@H](C(C)C)NC(=O)[C@H](Cc3ccc(-c4ccccc4)cc3)NC(=O)[C@H](C(C)C)NC2=O)c1 [Compound 2684] ({CH2CO}-[Dap]Y(Carboxymethyl)D[Phe(3-Me)]V[Bip]V[Orn][dCha][Dab][Cha]V[Dap]C[Dab][AEEA][Aun]-OH; thioether N-14)
7,7.33,CC(C)C[C@H]1NC(=O)[C@H](CCN)NC(=O)[C@H](Cc2ccc(O)cc2)NC(=O)[C@H](Cc2ccc(-c3ccccc3)cc2)NC(=O)[C@H](C(C)C)NC(=O)[C@H](Cc2c[nH]c3ccccc23)NC(=O)[C@H](CC(=O)O)NC(=O)[C@H](Cc2ccc(OCC(=O)O)cc2)NC(=O)[C@H](CCCNC(=N)N)NC(=O)CSC[C@@H](C(=O)N[C@@H](CCCN)C(=O)NCCCCCCCCCCC(=O)O)NC(=O)[C@@H](CCC(N)=O)NC(=O)[C@H](C(C)C)NC(=O)[C@H](CC2CCCCC2)NC(=O)[C@H](CCN)NC1=O [Compound 2817] ({CH2CO}-RY(Carboxymethyl)DWV[Bip]Y[Dab][dL][Dab][Cha]V[dQ]C[Orn][Aun]-OH; thioether N-14)
8,7.28,CC[C@H](C)[C@@H]1NC(=O)[C@H](Cc2ccc(-c3ccccc3)cc2)NC(=O)[C@H](C(C)C)NC(=O)[C@H](Cc2cccc(C)c2)NC(=O)[C@H](CC(=O)O)NC(=O)[C@H](Cc2ccc(C(=O)O)cc2)NC(=O)[C@H](Cc2ccncc2)NC(=O)CSC[C@@H](C(=O)N[C@@H](CCC(=O)O)C(=O)NCCCCCCCCCCC(=O)O)NC(=O)[C@H]([C@@H](C)O)NC(=O)[C@H](C(C)C)NC(=O)[C@H](CC2CCCCC2)NC(=O)[C@H](CCN)NC(=O)[C@@H](CC(C)C)NC(=O)[C@H](CCCN)NC1=O [Compound 1040] ({CH2CO}-[4Pal][Phe(4-COOH)]D[Phe(3-Me)]V[Bip]I[Orn][dL][Dab][Cha]VTCE[Aun]-OH; thioether N-14)
9,7.77,CC(=O)NCCCC[C@@H]1NC(=O)[C@H](Cc2ccc(OCC(=O)O)cc2)NC(=O)[C@H](Cc2ccc(-c3ccccc3)cc2)NC(=O)[C@H](Cc2ccc(OCC(=O)O)cc2)NC(=O)[C@H](Cc2cccc(C)c2)NC(=O)[C@H](CC(=O)O)NC(=O)[C@H](Cc2ccc(OCC(=O)O)cc2)NC(=O)[C@H](C(C)O)NC(=O)CSC[C@@H](C(=O)N[C@@H](CCN)C(=O)NCCCCCCCCCCC(=O)O)NC(=O)[C@H](C(C)O)NC(=O)[C@H](C(C)C)NC(=O)[C@H](CC2CCCCC2)NC(=O)[C@H](CCN)NC(=O)[C@@H](CC(C)C)NC1=O (stereo partly drawn) [Compound 3495] ({CH2CO}-[Thr(3ξ)]Y(Carboxymethyl)D[Phe(3-Me)]Y(Carboxymethyl)[Bip]Y(Carboxymethyl)K(Ac)[dL][Dab][Cha]V[Thr(3ξ)]C[Dab][Aun]-OH; thioether N-14)
10,7.56,CC(C)C[C@H]1NC(=O)[C@H](CCCN)NC(=O)[C@H](C(C)C)NC(=O)[C@H](Cc2ccc(-c3ccccc3)cc2)NC(=O)[C@H](C(C)C)NC(=O)[C@H](Cc2c[nH]c3ccccc23)NC(=O)[C@H](CC(=O)O)NC(=O)[C@H](Cc2c[nH]cn2)NC(=O)[C@H](CCCCNC(=N)N)NC(=O)CSC[C@@H](C(=O)N[C@@H](CCN)C(=O)NCCCCCCCCCCC(=O)O)NC(=O)[C@H](CCC(N)=O)NC(=O)[C@H](C(C)C)NC(=O)[C@H](CC2CCCCC2)NC(=O)[C@H](CCN)NC1=O [Compound 3273] ({CH2CO}-[hArg]HDWV[Bip]V[Orn][dL][Dab][Cha]VQC[Dab][Aun]-OH; thioether N-14)
11,7.45,CC(C)C[C@@H]1NC(=O)[C@H](Cc2c[nH]c3ccccc23)NC(=O)[C@H](CC(=O)O)NC(=O)[C@H](Cc2ccc(C(=O)O)cc2)NC(=O)[C@H](Cc2ccc(OCC(=O)O)cc2)NC(=O)CSC[C@@H](C(=O)N[C@@H](CCCCN)C(=O)NCCCCCCCCCCC(=O)O)NC(=O)[C@H](CCCNC(N)=O)NC(=O)[C@H](C(C)C)NC(=O)[C@H](CC2CCCCC2)NC(=O)[C@H](CCN)NC(=O)[C@@H](CC(C)C)NC(=O)[C@H](CCCN)NC(=O)[C@H](Cc2ccc(O)cc2)NC(=O)[C@H](Cc2ccc(-c3ccccc3)cc2)NC1=O [Compound 1236] ({CH2CO}-Y(Carboxymethyl)[Phe(4-COOH)]DWL[Bip]Y[Orn][dL][Dab][Cha]V[Cit]CK[Aun]-OH; thioether N-14)
12,8.19,Cc1cccc(C[C@@H]2NC(=O)[C@H](CC(=O)O)NC(=O)[C@H](Cc3ccc(OCC(=O)O)cc3)NC(=O)[C@H](CN)NC(=O)CSC[C@@H](C(=O)N[C@@H](CCCCN)C(=O)NCCCCCCCCCCC(=O)O)NC(=O)[C@H](CCCN)NC(=O)[C@H](C(C)C)NC(=O)[C@H](CC3CCCCC3)NC(=O)[C@H](CCN)NC(=O)[C@@H](CC(C)C)NC(=O)[C@H](CCCN)NC(=O)[C@H](C(C)C)NC(=O)[C@H](Cc3ccc(-c4ccccc4)cc3)NC(=O)[C@H](C(C)C)NC2=O)c1 [Compound 2535] ({CH2CO}-[Dap]Y(Carboxymethyl)D[Phe(3-Me)]V[Bip]V[Orn][dL][Dab][Cha]V[Orn]CK[Aun]-OH; thioether N-14)
13,7.75,Cc1cccc(C[C@@H]2NC(=O)[C@H](CC(=O)O)NC(=O)[C@H](Cc3cccnc3)NC(=O)[C@H](CC(N)=O)NC(=O)CSC[C@@H](C(=O)N[C@@H](CCN)C(=O)NCCCCCCCCCCC(=O)O)NC(=O)[C@H](CCCN)NC(=O)[C@H](C(C)C)NC(=O)[C@H](CC3CCCCC3)NC(=O)[C@H](CCN)NC(=O)[C@@H](CC(C)C)NC(=O)[C@H](CCCN)NC(=O)[C@H](Cc3ccc(O)cc3)NC(=O)[C@H](Cc3ccc(-c4ccccc4)cc3)NC(=O)[C@H](C(C)C)NC2=O)c1 [Compound 2700] ({CH2CO}-N[3Pal]D[Phe(3-Me)]V[Bip]Y[Orn][dL][Dab][Cha]V[Orn]C[Dab][Aun]-OH; thioether N-14)
